The text below walks through data of patent publication US9265773B2, “Tetracyclic heterocycle compounds and methods of use thereof for the treatment of viral diseases” (priority 2011, dated 2016).

Structures are written as SMILES.

In general, IC50 refers to the midpoint of a concentration-inhibition curve. Read a low IC50 as inhibition by little substance.

For one experiment, the system named is HCV replicon genotype 1a. Put plainly: microbe, parasite or virus in culture. Conditions: Hepatitis C virus, 96 h, genotype 1a replicon cells, incubated 96 hours, NS3/4A ELISA readout. In kind it is cell-based.
A further experiment concerns HCV replicon genotype 1b. Put plainly: microbe, parasite or virus in culture. The class given is cell-based. To be noted: Hepatitis C virus, 96 h, genotype 1b replicon cells, incubated 96 hours, NS3/4A ELISA readout. A general note: A replicon is a self-replicating genome or part of one, used to study replication in cells.

Consider `CNC(=O)c1c(-c2ccc(F)cc2)oc2cc(N3CCCS3(=O)=O)c(-c3ccc4c(n3)-c3cc5c(F)cccc5n3CO4)cc12` [Compound 175, 6-(1,1-dioxidoisothiazolidin-2-yl)-5-(11-fluoro-6H-pyrido[2′,3′:5,6][1,3]oxazino[3,4-a]indol-2-yl)-2-(4-fluorophenyl)-N-methylbenzofuran-3-carboxamide], for which the IC50 came out at 5.3 nM in the experiment with HCV replicon genotype 1a and 3.1 nM in the experiment on HCV replicon genotype 1b.

Take `CNC(=O)c1c(-c2ccc(F)cc2)oc2cc(N(C)S(C)(=O)=O)c(-c3ccc4c(n3)-c3cc5ccccc5n3CO4)cc12` [Compound 1, 2-(4-fluorophenyl)-N-methyl-6-(N-methylmethylsulfonamido)-5-(6H-pyrido[2′,3′:5,6][1,3]oxazino[3,4-a]indol-2-yl)benzofuran-3-carboxamide]: the IC50 with HCV replicon genotype 1a was 2.4 nM; in the experiment on HCV replicon genotype 1b, 4.8 nM.

With `CNC(=O)c1c(-c2ccc(F)cc2)oc2cc(N(C)S(C)(=O)=O)c(-c3ccc4c(n3)-c3cc5c(F)cccc5n3[C@H](COC(=O)[C@@H](N)C(C)C)O4)cc12` [Compound 102, (S)—((S)-11-fluoro-2-(2-(4-fluorophenyl)-3-(methylcarbamoyl)-6-(N-methylmethylsulfonamido)benzofuran-5-yl)-6H-pyrido[2′,3′:5,6][1,3]oxazino[3,4-a]indol-6-yl)methyl 2-amino-3-methylbutanoate], the IC50 in the experiment on HCV replicon genotype 1a worked out at 3.9 nM; in the experiment with HCV replicon genotype 1b it was 4.3 nM.

As to `CNC(=O)c1c(-c2ccc(F)cc2F)oc2cc(N(C)S(C)(=O)=O)c(-c3ccc4c(n3)-c3cc5ccccc5n3CO4)cc12` [Compound 148], the IC50 was determined as 2.8 nM in the experiment on HCV replicon genotype 1a and 4.6 nM in the experiment with HCV replicon genotype 1b.

For the compound `CNC(=O)c1c(-c2ccc(F)cc2)oc2cc(N(C)S(C)(=O)=O)c(-c3ccc4c(n3)-c3cc5ccc(Cl)cc5n3CO4)cc12` [Compound 15], the half-inhibitory concentration (IC50) with HCV replicon genotype 1a was 9.1 nM; with HCV replicon genotype 1b it was 9.9 nM.

For the compound `CNC(=O)c1c(-c2ccc(F)cc2)oc2cc(N(C)S(C)(=O)=O)c(-c3cnc4c(c3)-c3cc5c(F)cccc5n3CO4)cc12` [Compound 34], the IC50 in the experiment with HCV replicon genotype 1a was determined as 1.4 nM; in the experiment with HCV replicon genotype 1b, 3.3 nM.

`CNC(=O)c1c(-c2ccc(F)cc2)oc2cc(N(CCF)S(C)(=O)=O)c(-c3ncc4c(n3)-c3cc5ccccc5n3CO4)cc12` [Compound 196]: the IC50 in the experiment on HCV replicon genotype 1a came out at 1.8 nM; with HCV replicon genotype 1b, 3.6 nM.

Regarding `CNC(=O)c1c(-c2ccc(F)cc2)oc2cc(N(C)S(C)(=O)=O)c(-c3ccc4c(c3)-c3[nH]c5ccccc5c3C(c3cccnc3)O4)cc12` (stereo not drawn) [Compound 62], the IC50 was 12 nM in the experiment with HCV replicon genotype 1a and 3.4 nM with HCV replicon genotype 1b.

On to `CNC(=O)c1c(-c2ccc(F)cc2F)oc2cc(N(C)S(C)(=O)=O)c(-c3ncc4c(n3)-c3cc5c(F)cccc5n3CO4)cc12` [Compound 149], for which the IC50 turned out to be 1.2 nM with HCV replicon genotype 1a and 2.2 nM in the experiment on HCV replicon genotype 1b.

On to `CNC(=O)c1c(-c2ccc(F)cc2)oc2cc(N(CC(F)F)S(C)(=O)=O)c(-c3ncc4c(n3)-c3cc5c(F)cccc5n3CO4)cc12` [Compound 186], for which the IC50 in the experiment with HCV replicon genotype 1a was determined as 4.4 nM; in the experiment on HCV replicon genotype 1b, 7.6 nM.

As to `CN(c1cc2oc(-c3ccc(F)cc3)c(-c3ncn[nH]3)c2cc1-c1ccc2c(n1)-c1cc3c(F)cccc3n1CO2)S(C)(=O)=O` [Compound 160, N-(5-(11-fluoro-6H-pyrido[2′,3′:5,6][1,3]oxazino[3,4-a]indol-2-yl)-2-(4-fluorophenyl)-3-(1H-1,2,4-triazol-5-yl)benzofuran-6-yl)-N-methylmethanesulfonamide], the IC50 in the experiment with HCV replicon genotype 1a was 19 nM; in the experiment on HCV replicon genotype 1b, 16 nM.

As to `CNC(=O)c1c(-c2ccc(F)cc2)oc2cc(N(C)S(C)(=O)=O)c(-c3ccc4c(n3)-c3cc5nc(OC)ccc5n3CO4)cc12` [Compound 45, 2-(4-fluorophenyl)-5-(10-methoxy-6H-pyrido[2,3-e]pyrido[2′,3′:4,5]pyrrolo[1,2-c][1,3]oxazin-2-yl)-N-methyl-6-(N-methylmethylsulfonamido)benzofuran-3-carboxamide], the results for the IC50 in the experiment on HCV replicon genotype 1a and in the experiment on HCV replicon genotype 1b were 9.2 nM and 11 nM, respectively.
